Data published in US10233182B2, “Substituted spirocyclic inhibitors of autotaxin” (X-Rx, Inc., priority 2014, dated 2019).
Where a name gives a salt, the structure may show the parent alone.

Molecular target: Autotaxin (Homo sapiens (Human), UniProt Q13822)
Test: Autotaxin LPC Cascade Assay
Format: biochemical
Conditions: Autotaxin 5 nM, LPC 100 μM, choline oxidase/HRP/Ampliflu Red fluorescence read-out, 2% DMSO, RT; read-out: IC50 ATX Activity
Outline: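 Choline liberated from LPC by autotaxin during 1 h, after a 10-min RT compound preincubation, was converted through choline oxidase/HRP to a fluorescent Ampliflu Red product.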

Row | Compound | IC50 [nM]
1 | CCc1cc(F)cc(C(=O)N[C@@H](C(=O)N2CCC3(CC2)C(=O)N(C)CN3c2ccccc2)[C@H](C)OC)c1 [Example 136, 3-Ethyl-5-fluoro-N-((2R,3S)-3-methoxy-1-(3-methyl-4-oxo-1-phenyl-1,3,8-triazaspiro[4.5]decan-8-yl)-1-oxobutan-2-yl)benzamide] | < 500
2 | CC(C)[C@@H](NC(=O)c1cc(C(F)(F)F)ccc1F)C(=O)N1CCC2(CC1)C(=O)N(C)CN2c1ccc(C(N)=O)cc1 [Example 157, (R)—N-(1-(1-(4-Carbamoylphenyl)-3-methyl-4-oxo-1,3,8-triazaspiro[4.5]decan-8-yl)-3-methyl-1-oxobutan-2-yl)-2-fluoro-5-(trifluoromethyl)benzamide] | < 500
3 | CC(C)[C@@H](NC(=O)c1cc(C(F)(F)F)ccc1F)C(=O)N1CCC2(CC1)C(=O)N(CC1CC1)CN2c1ccc(C(=O)O)cc1 [Example 155, (R)-4-(3-(Cyclopropylmethyl)-8-(2-(2-fluoro-5-(trifluoromethyl)benzamido)-3-methylbutanoyl)-4-oxo-1,3,8-triazaspiro[4.5]decan-1-yl)benzoic Acid] | < 500
4 | Cc1cccc(C(=O)N[C@H](C(=O)N2CCC3(CC2)C(=O)N(C)CN3c2ccccc2)C2CCOCC2)c1 [Example 130, (S)-3-Methyl-N-(2-(3-methyl-4-oxo-1-phenyl-1,3,8-triazaspiro[4.5]decan-8-yl)-2-oxo-1-(tetrahydro-2H-pyran-4-yl)ethyl)benzamide] | ≥ 1000
5 | CC(C)[C@@H](NC(=O)c1cc(C(F)(F)F)ccc1F)C(=O)N1CCC2(CC1)C(=O)N(C)C(=O)N2c1ccc2ocnc2c1 [Example 245, (R)—N-(1-(1-(Benzo[d]oxazol-5-yl)-3-methyl-2,4-dioxo-1,3,8-triazaspiro[4.5]decan-8-yl)-3-methyl-1-oxobutan-2-yl)-2-fluoro-5-(trifluoromethyl)benzamide] | < 500
6 | Cc1ccc(C(F)(F)F)cc1C(=O)N[C@@H](C(=O)N1CCC2(CC1)C(=O)N(C)C(=O)N2c1ccc2[nH]ncc2c1)C(C)C [Example 61, (R)—N-(1-(1-(1H-Indazol-5-yl)-3-methyl-2,4-dioxo-1,3,8-triazaspiro[4.5]decan-8-yl)-3-methyl-1-oxobutan-2-yl)-2-methyl-5-(trifluoromethyl)benzamide] | ≥ 1000
7 | CC(C)[C@@H](NC(=O)c1cc(C(F)(F)F)ccc1F)C(=O)N1CCC2(CC1)C(=O)N(C)C(=O)N2c1ccc2nccn2c1 [Example 14, (R)-2-Fluoro-N-(1-(1-(imidazo[1,2-a]pyridin-6-yl)-3-methyl-2,4-dioxo-1,3,8-triazaspiro[4.5]decan-8-yl)-3-methyl-1-oxobutan-2-yl)-5-(trifluoromethyl)benzamide trifluoroacetic Acid Salt] | < 500
8 | CC(C)[C@@H](NC(=O)c1cc(C(F)(F)F)ccc1F)C(=O)N1CCC2(CC1)C(=O)N(C)C(=O)N2c1ccncc1 [Example 239, (R)-2-Fluoro-N-(3-methyl-1-(3-methyl-2,4-dioxo-1-(pyridin-4-yl)-1,3,8-triazaspiro[4.5]decan-8-yl)-1-oxobutan-2-yl)-5-(trifluoromethyl)benzamide] | < 500
9 | CC(C)[C@@H](NC(=O)c1cc(C(F)(F)F)ccc1F)C(=O)N1CCC2(CC1)C(=O)N(C)C(=O)N2c1cccc(S(C)(=O)=O)c1 [Example 15, (R)-2-Fluoro-N-(3-methyl-1-(3-methyl-1-(3-(methylsulfonyl)phenyl)-2,4-dioxo-1,3,8-triazaspiro[4.5]decan-8-yl)-1-oxobutan-2-yl)-5-(trifluoromethyl)benzamide] | ≥ 1000
10 | CC(C)[C@@H](NC(=O)c1cc(C(F)(F)F)ccc1F)C(=O)N1CCC2(CC1)C(=O)N(C)CN2c1ccc(-c2nn[nH]n2)cc1 [Example 227, (R)—N-(1-(1-(4-(2H-Tetrazol-5-yl)phenyl)-3-methyl-4-oxo-1,3,8-triazaspiro[4.5]decan-8-yl)-3-methyl-1-oxobutan-2-yl)-2-fluoro-5-(trifluoromethyl)benzamide] | < 500
11 | CC(C)[C@@H](NC(=O)c1cc(C(F)(F)F)ccc1F)C(=O)N1CCC2(CC1)C(=O)N(C)C(=O)N2c1ccc(S(C)(=O)=O)cc1 [Example 9, (R)-2-Fluoro-N-(3-methyl-1-(3-methyl-1-(4-(methylsulfonyl)phenyl)-2,4-dioxo-1,3,8-triazaspiro[4.5]decan-8-yl)-1-oxobutan-2-yl)-5-(trifluoromethyl)benzamide] | 500 to 1000
12 | CC(C)[C@@H](NC(=O)c1cc(C(F)(F)F)ccc1F)C(=O)N1CCC2(CC1)C(=O)N(C)C(=O)N2c1ccc2[nH]ncc2c1 [Example 52, (R)—N-(1-(1-(1H-indazol-5-yl)-3-methyl-2,4-dioxo-1,3,8-triazaspiro[4.5]decan-8-yl)-3-methyl-1-oxobutan-2-yl)-2-fluoro-5-(trifluoromethyl)benzamide] | < 500
13 | CC(C)[C@@H](NC(=O)c1cc(C(F)(F)F)ccc1F)C(=O)N1CCC2(CC1)C(=O)N(C)C(=O)N2Cc1ccc2[nH]ncc2c1 [Example 98, (R)—N-(1-(1-((1H-Indazol-5-yl)methyl)-3-methyl-2,4-dioxo-1,3,8-triazaspiro[4.5]decan-8-yl)-3-methyl-1-oxobutan-2-yl)-2-fluoro-5-(trifluoromethyl)benzamide] | < 500
14 | CC(C)[C@@H](NC(=O)c1cc(OC(F)F)ccc1F)C(=O)N1CCC2(CC1)C(=O)N(C)C(=O)N2c1ccc(-c2nn[nH]n2)cc1 [Example 226, (R)—N-(1-(1-(4-(2H-Tetrazol-5-yl)phenyl)-3-methyl-2,4-dioxo-1,3,8-triazaspiro[4.5]decan-8-yl)-3-methyl-1-oxobutan-2-yl)-5-(difluoromethoxy)-2-fluorobenzamide] | < 500
15 | CC(C)[C@@H](NC(=O)c1cc(C(F)(F)F)ccc1F)C(=O)N1CCC2(CC1)C(=O)N(C)C(=O)N2Cc1ccn2ccnc2c1 [Example 102, (R)-2-Fluoro-N-(1-(1-(imidazo[1,2-a]pyridin-7-ylmethyl)-3-methyl-2,4-dioxo-1,3,8-triazaspiro[4.5]decan-8-yl)-3-methyl-1-oxobutan-2-yl)-5-(trifluoromethyl)benzamide] | 500 to 1000
16 | CC(C)[C@@H](NC(=O)c1cc(C(F)(F)F)ccc1F)C(=O)N1CCC2(CC1)C(=O)N(C)CN2c1ccc(OCCN(C)C)cc1 [Example 171, (R)—N-(1-(1-(4-(2-(Dimethylamino)ethoxy)phenyl)-3-methyl-4-oxo-1,3,8-triazaspiro[4.5]decan-8-yl)-3-methyl-1-oxobutan-2-yl)-2-fluoro-5-(trifluoromethyl)benzamide trifluoroacetic Acid Salt] | < 500
17 | CC(C)[C@@H](NC(=O)c1cc(C(F)(F)F)ccc1F)C(=O)N1CCC2(CC1)C(=O)N(C)C(=O)N2Cc1cccc(C#N)c1 [Example 101, (R)—N-(1-(1-(3-Cyanobenzyl)-3-methyl-2,4-dioxo-1,3,8-triazaspiro[4.5]decan-8-yl)-3-methyl-1-oxobutan-2-yl)-2-fluoro-5-(trifluoromethyl)benzamide] | < 500
18 | CC(C)[C@@H](NC(=O)c1cc(C(F)(F)F)ccc1F)C(=O)N1CCC2(CC1)C(=O)N(C)C(=O)N2C1CCCCC1 [Example 242, (R)—N-(1-(1-Cyclohexyl-3-methyl-2,4-dioxo-1,3,8-triazaspiro[4.5]decan-8-yl)-3-methyl-1-oxobutan-2-yl)-2-fluoro-5-(trifluoromethyl)benzamide] | < 500
